Source: PubChem BioAssay (NCI)
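48-hour exposure; five concentrations; linearly interpolated endpoints. TGI marks complete inhibition of growth.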

Legend:
Experiment in all cases: growth of human tumour cells (NCI), 48 h
HCT-15 colon = system: HCT-15 colon
MOLT-4 leukemia = system: MOLT-4 leukemia
BT-549 breast = system: BT-549 breast
LOX IMVI melanoma = system: LOX IMVI melanoma
UACC-62 melanoma = system: UACC-62 melanoma
UACC-257 melanoma = system: UACC-257 melanoma
EKVX NSCLC = system: EKVX NSCLC
HT29 colon = system: HT29 colon
MCF7 breast = system: MCF7 breast
DU-145 prostate = system: DU-145 prostate
SF-539 CNS = system: SF-539 CNS
A549 NSCLC = system: A549 NSCLC
RPMI-8226 leukemia = system: RPMI-8226 leukemia
OVCAR-5 ovarian = system: OVCAR-5 ovarian
MALME-3M melanoma = system: MALME-3M melanoma
SNB-75 CNS = system: SNB-75 CNS
NCI/ADR-RES ovarian = system: NCI/ADR-RES ovarian
M14 melanoma = system: M14 melanoma
A498 renal = system: A498 renal
SF-295 CNS = system: SF-295 CNS
MDA-MB-231 breast = system: MDA-MB-231 breast
UO-31 renal = system: UO-31 renal
IGROV1 ovarian = system: IGROV1 ovarian
SK-MEL-2 melanoma = system: SK-MEL-2 melanoma
SN12C renal = system: SN12C renal
RXF 393 renal = system: RXF 393 renal
PC-3 prostate = system: PC-3 prostate
HS 578T breast = system: HS 578T breast
SF-268 CNS = system: SF-268 CNS
HCC-2998 colon = system: HCC-2998 colon
SK-MEL-5 melanoma = system: SK-MEL-5 melanoma
OVCAR-8 ovarian = system: OVCAR-8 ovarian
HOP-62 NSCLC = system: HOP-62 NSCLC
MDA-MB-435 = system: MDA-MB-435
NCI-H23 lung = system: NCI-H23 lung
TK-10 renal = system: TK-10 renal
ACHN renal = system: ACHN renal
SK-OV-3 ovarian = system: SK-OV-3 ovarian
MDA-N = system: MDA-N
OVCAR-4 ovarian = system: OVCAR-4 ovarian
HOP-92 NSCLC = system: HOP-92 NSCLC
SR leukemia = system: SR leukemia
NCI-H226 lung = system: NCI-H226 lung
COLO 205 colon = system: COLO 205 colon
HCT-116 colon = system: HCT-116 colon
SNB-19 CNS = system: SNB-19 CNS
CAKI-1 renal = system: CAKI-1 renal
U251 CNS = system: U251 CNS
K-562 leukemia = system: K-562 leukemia
KM12 colon = system: KM12 colon
OVCAR-3 ovarian = system: OVCAR-3 ovarian
SW-620 colon = system: SW-620 colon
NCI-H522 lung = system: NCI-H522 lung
NCI-H460 lung = system: NCI-H460 lung
HL-60(TB) leukemia = system: HL-60(TB) leukemia
T-47D breast = system: T-47D breast
SK-MEL-28 melanoma = system: SK-MEL-28 melanoma
786-0 renal = system: 786-0 renal
CCRF-CEM leukemia = system: CCRF-CEM leukemia

## CCn1cc(C(c2ccc(Cl)cc2)n2ccnc2)c2cc(Br)ccc21 (stereo not given)
HCT-15 colon
  TGI: 30.6 µM
MOLT-4 leukemia
  TGI: > 100 µM
BT-549 breast
  TGI: 31.9 µM
LOX IMVI melanoma
  TGI: 28.2 µM
UACC-62 melanoma
  TGI: 25.2 µM
UACC-257 melanoma
  TGI: 31.4 µM
EKVX NSCLC
  TGI: > 100 µM
HT29 colon
  TGI: 22.3 µM
MCF7 breast
  TGI: 29.8 µM
DU-145 prostate
  TGI: 30.3 µM
SF-539 CNS
  TGI: 41.3 µM
A549 NSCLC
  TGI: 24 µM
RPMI-8226 leukemia
  TGI: 75 µM
OVCAR-5 ovarian
  TGI: 25.5 µM
MALME-3M melanoma
  TGI: 32.7 µM
SNB-75 CNS
  TGI: 28.5 µM
NCI/ADR-RES ovarian
  TGI: 42.7 µM
M14 melanoma
  TGI: 26.7 µM
A498 renal
  TGI: 27 µM
SF-295 CNS
  TGI: 23.8 µM
MDA-MB-231 breast
  TGI: 35.8 µM
UO-31 renal
  TGI: 20.1 µM
IGROV1 ovarian
  TGI: 24.8 µM
SK-MEL-2 melanoma
  TGI: 38.8 µM
SN12C renal
  TGI: > 100 µM
RXF 393 renal
  TGI: 29.9 µM
PC-3 prostate
  TGI: 22.8 µM
HS 578T breast
  TGI: 47.2 µM
SF-268 CNS
  TGI: 27.4 µM
HCC-2998 colon
  TGI: 29 µM
SK-MEL-5 melanoma
  TGI: 31.2 µM
OVCAR-8 ovarian
  TGI: 31.6 µM
HOP-62 NSCLC
  TGI: 28.6 µM
MDA-MB-435
  TGI: 27 µM
NCI-H23 lung
  TGI: 31.1 µM
TK-10 renal
  TGI: 33.7 µM
ACHN renal
  TGI: 25.9 µM
SK-OV-3 ovarian
  TGI: 33.3 µM
MDA-N
  TGI: 66.2 µM
OVCAR-4 ovarian
  TGI: 22.8 µM
HOP-92 NSCLC
  TGI: 19.4 µM
SR leukemia
  TGI: 36.8 µM
NCI-H226 lung
  TGI: 76.5 µM
COLO 205 colon
  TGI: 35.1 µM
HCT-116 colon
  TGI: 33.8 µM
SNB-19 CNS
  TGI: 28.3 µM
CAKI-1 renal
  TGI: 27.3 µM
U251 CNS
  TGI: 30.5 µM
K-562 leukemia
  TGI: 33.5 µM
KM12 colon
  TGI: 24.3 µM
OVCAR-3 ovarian
  TGI: 22.2 µM

## CC(C)(C)C(=O)C(CC(=O)c1ccccc1)C(=O)C(C)(C)C
HCT-15 colon
  TGI: > 100 µM
MOLT-4 leukemia
  TGI: > 100 µM
LOX IMVI melanoma
  TGI: > 100 µM
UACC-257 melanoma
  TGI: > 100 µM
EKVX NSCLC
  TGI: > 100 µM
HT29 colon
  TGI: > 100 µM
MCF7 breast
  TGI: > 100 µM
SW-620 colon
  TGI: > 100 µM
NCI-H522 lung
  TGI: > 100 µM
DU-145 prostate
  TGI: > 100 µM
SF-539 CNS
  TGI: > 100 µM
A549 NSCLC
  TGI: > 100 µM
RPMI-8226 leukemia
  TGI: > 100 µM
OVCAR-5 ovarian
  TGI: > 100 µM
MALME-3M melanoma
  TGI: > 100 µM
SNB-75 CNS
  TGI: > 100 µM
NCI-H460 lung
  TGI: > 100 µM
NCI/ADR-RES ovarian
  TGI: > 100 µM
M14 melanoma
  TGI: > 100 µM
A498 renal
  TGI: > 100 µM
SF-295 CNS
  TGI: > 100 µM
MDA-MB-231 breast
  TGI: > 100 µM
UO-31 renal
  TGI: > 100 µM
IGROV1 ovarian
  TGI: > 100 µM
HL-60(TB) leukemia
  TGI: > 100 µM
SK-MEL-2 melanoma
  TGI: > 100 µM
SN12C renal
  TGI: > 100 µM
T-47D breast
  TGI: > 100 µM
PC-3 prostate
  TGI: > 100 µM
HS 578T breast
  TGI: > 100 µM
SF-268 CNS
  TGI: > 100 µM
HCC-2998 colon
  TGI: > 100 µM
SK-MEL-5 melanoma
  TGI: > 100 µM
OVCAR-8 ovarian
  TGI: > 100 µM
HOP-62 NSCLC
  TGI: > 100 µM
MDA-MB-435
  TGI: > 100 µM
NCI-H23 lung
  TGI: > 100 µM
TK-10 renal
  TGI: > 100 µM
ACHN renal
  TGI: > 100 µM
SK-MEL-28 melanoma
  TGI: > 100 µM
SK-OV-3 ovarian
  TGI: > 100 µM
MDA-N
  TGI: > 100 µM
OVCAR-4 ovarian
  TGI: > 100 µM
HOP-92 NSCLC
  TGI: > 100 µM
NCI-H226 lung
  TGI: > 100 µM
COLO 205 colon
  TGI: > 100 µM
HCT-116 colon
  TGI: > 100 µM
SNB-19 CNS
  TGI: > 100 µM
CAKI-1 renal
  TGI: > 100 µM
786-0 renal
  TGI: > 100 µM
CCRF-CEM leukemia
  TGI: > 100 µM
U251 CNS
  TGI: > 100 µM
K-562 leukemia
  TGI: > 100 µM
KM12 colon
  TGI: > 100 µM
OVCAR-3 ovarian
  TGI: > 100 µM

## c1ccc(C[P+]2(c3ccccc3)c3ccccc3-c3ccccc32)cc1
HCT-15 colon
  TGI: > 100 µM
MOLT-4 leukemia
  TGI: > 100 µM
BT-549 breast
  TGI: > 100 µM
LOX IMVI melanoma
  TGI: > 100 µM
UACC-62 melanoma
  TGI: > 100 µM
UACC-257 melanoma
  TGI: > 100 µM
EKVX NSCLC
  TGI: > 100 µM
MCF7 breast
  TGI: > 100 µM
SW-620 colon
  TGI: > 100 µM
NCI-H522 lung
  TGI: > 100 µM
DU-145 prostate
  TGI: > 100 µM
SF-539 CNS
  TGI: > 100 µM
A549 NSCLC
  TGI: > 100 µM
RPMI-8226 leukemia
  TGI: > 100 µM
SNB-75 CNS
  TGI: > 100 µM
M14 melanoma
  TGI: > 100 µM
SF-295 CNS
  TGI: > 100 µM
MDA-MB-231 breast
  TGI: > 100 µM
UO-31 renal
  TGI: > 100 µM
IGROV1 ovarian
  TGI: > 100 µM
HL-60(TB) leukemia
  TGI: > 100 µM
SN12C renal
  TGI: > 100 µM
RXF 393 renal
  TGI: > 100 µM
PC-3 prostate
  TGI: > 100 µM
HS 578T breast
  TGI: > 100 µM
SF-268 CNS
  TGI: > 100 µM
HCC-2998 colon
  TGI: > 100 µM
SK-MEL-5 melanoma
  TGI: > 100 µM
OVCAR-8 ovarian
  TGI: > 100 µM
HOP-62 NSCLC
  TGI: > 100 µM
MDA-MB-435
  TGI: > 100 µM
NCI-H23 lung
  TGI: > 100 µM
TK-10 renal
  TGI: > 100 µM
SK-MEL-28 melanoma
  TGI: > 100 µM
SK-OV-3 ovarian
  TGI: > 100 µM
MDA-N
  TGI: > 100 µM
HOP-92 NSCLC
  TGI: > 100 µM
NCI-H226 lung
  TGI: > 100 µM
COLO 205 colon
  TGI: > 100 µM
HCT-116 colon
  TGI: > 100 µM
SNB-19 CNS
  TGI: > 100 µM
CAKI-1 renal
  TGI: > 100 µM
786-0 renal
  TGI: > 100 µM
CCRF-CEM leukemia
  TGI: > 100 µM
K-562 leukemia
  TGI: > 100 µM
KM12 colon
  TGI: > 100 µM
OVCAR-3 ovarian
  TGI: > 100 µM

## Cc1ccccc1C1OC1C(=O)c1ccccc1N (stereo not given)
HCT-15 colon
  TGI: > 100 µM
MOLT-4 leukemia
  TGI: > 100 µM
LOX IMVI melanoma
  TGI: > 100 µM
UACC-62 melanoma
  TGI: > 100 µM
UACC-257 melanoma
  TGI: > 100 µM
HT29 colon
  TGI: > 100 µM
MCF7 breast
  TGI: > 100 µM
SW-620 colon
  TGI: > 100 µM
DU-145 prostate
  TGI: > 100 µM
SF-539 CNS
  TGI: > 100 µM
A549 NSCLC
  TGI: > 100 µM
RPMI-8226 leukemia
  TGI: > 100 µM
OVCAR-5 ovarian
  TGI: > 100 µM
NCI-H460 lung
  TGI: > 100 µM
NCI/ADR-RES ovarian
  TGI: > 100 µM
M14 melanoma
  TGI: > 100 µM
A498 renal
  TGI: > 100 µM
MDA-MB-231 breast
  TGI: > 100 µM
UO-31 renal
  TGI: > 100 µM
SK-MEL-2 melanoma
  TGI: > 100 µM
SN12C renal
  TGI: > 100 µM
RXF 393 renal
  TGI: > 100 µM
PC-3 prostate
  TGI: > 100 µM
SF-268 CNS
  TGI: > 100 µM
HCC-2998 colon
  TGI: > 100 µM
SK-MEL-5 melanoma
  TGI: > 100 µM
OVCAR-8 ovarian
  TGI: > 100 µM
MDA-MB-435
  TGI: 43.2 µM
NCI-H23 lung
  TGI: > 100 µM
TK-10 renal
  TGI: > 100 µM
ACHN renal
  TGI: > 100 µM
SK-MEL-28 melanoma
  TGI: > 100 µM
SK-OV-3 ovarian
  TGI: > 100 µM
MDA-N
  TGI: 36.3 µM
OVCAR-4 ovarian
  TGI: > 100 µM
HOP-92 NSCLC
  TGI: > 100 µM
SR leukemia
  TGI: > 100 µM
NCI-H226 lung
  TGI: > 100 µM
COLO 205 colon
  TGI: > 100 µM
HCT-116 colon
  TGI: > 100 µM
SNB-19 CNS
  TGI: > 100 µM
CAKI-1 renal
  TGI: > 100 µM
786-0 renal
  TGI: > 100 µM
CCRF-CEM leukemia
  TGI: > 100 µM
U251 CNS
  TGI: > 100 µM
K-562 leukemia
  TGI: > 100 µM
KM12 colon
  TGI: > 100 µM
